Earlier results as cited in patent US10639299B2, “Calcium sensing receptors, ligands, compositions, and methods of use” (Georgia State University Research Foundation, Inc., priority 2016, dated 2020).

Experiments:
CaSR [1] = molecular target: T1, CaSR (Bos taurus, UniProt P35384); details: X. laevis oocytes; cited from earlier work
T1 construct: host or cells: X. laevis oocytes
T1 sequence (P35384 20-1085): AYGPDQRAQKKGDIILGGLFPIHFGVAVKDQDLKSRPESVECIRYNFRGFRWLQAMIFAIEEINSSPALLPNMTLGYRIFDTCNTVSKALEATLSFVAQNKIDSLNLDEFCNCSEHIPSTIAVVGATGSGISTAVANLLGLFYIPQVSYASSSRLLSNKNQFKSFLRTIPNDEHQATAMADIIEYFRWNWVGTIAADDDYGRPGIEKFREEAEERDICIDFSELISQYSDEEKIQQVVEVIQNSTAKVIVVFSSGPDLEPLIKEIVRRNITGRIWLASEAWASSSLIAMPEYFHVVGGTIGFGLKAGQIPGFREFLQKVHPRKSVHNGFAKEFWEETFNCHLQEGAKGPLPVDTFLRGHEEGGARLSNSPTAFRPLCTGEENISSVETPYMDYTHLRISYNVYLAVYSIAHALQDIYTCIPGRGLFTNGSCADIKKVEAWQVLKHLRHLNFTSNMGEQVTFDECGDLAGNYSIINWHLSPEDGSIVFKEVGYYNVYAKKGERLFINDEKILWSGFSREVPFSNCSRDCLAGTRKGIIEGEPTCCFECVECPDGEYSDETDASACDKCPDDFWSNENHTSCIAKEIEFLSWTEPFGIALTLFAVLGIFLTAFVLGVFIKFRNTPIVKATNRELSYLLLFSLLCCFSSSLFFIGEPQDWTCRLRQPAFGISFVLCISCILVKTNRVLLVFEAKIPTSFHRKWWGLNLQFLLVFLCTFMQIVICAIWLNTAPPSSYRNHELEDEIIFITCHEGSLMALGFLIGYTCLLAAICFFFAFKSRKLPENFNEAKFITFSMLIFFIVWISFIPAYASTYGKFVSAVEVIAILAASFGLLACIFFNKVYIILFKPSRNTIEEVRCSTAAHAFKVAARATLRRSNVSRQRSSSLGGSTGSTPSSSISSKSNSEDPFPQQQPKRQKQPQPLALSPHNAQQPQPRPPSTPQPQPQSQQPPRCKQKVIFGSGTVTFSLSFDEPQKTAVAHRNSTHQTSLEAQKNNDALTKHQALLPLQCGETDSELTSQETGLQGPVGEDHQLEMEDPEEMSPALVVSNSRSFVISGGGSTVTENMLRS

rat CaSR = molecular target: T2, rat CaSR (Rattus norvegicus, UniProt P48442); details: CHO cells; cited from earlier work
T2 construct: host or cells: CHO cells, transient
T2 sequence (P48442 20-1079): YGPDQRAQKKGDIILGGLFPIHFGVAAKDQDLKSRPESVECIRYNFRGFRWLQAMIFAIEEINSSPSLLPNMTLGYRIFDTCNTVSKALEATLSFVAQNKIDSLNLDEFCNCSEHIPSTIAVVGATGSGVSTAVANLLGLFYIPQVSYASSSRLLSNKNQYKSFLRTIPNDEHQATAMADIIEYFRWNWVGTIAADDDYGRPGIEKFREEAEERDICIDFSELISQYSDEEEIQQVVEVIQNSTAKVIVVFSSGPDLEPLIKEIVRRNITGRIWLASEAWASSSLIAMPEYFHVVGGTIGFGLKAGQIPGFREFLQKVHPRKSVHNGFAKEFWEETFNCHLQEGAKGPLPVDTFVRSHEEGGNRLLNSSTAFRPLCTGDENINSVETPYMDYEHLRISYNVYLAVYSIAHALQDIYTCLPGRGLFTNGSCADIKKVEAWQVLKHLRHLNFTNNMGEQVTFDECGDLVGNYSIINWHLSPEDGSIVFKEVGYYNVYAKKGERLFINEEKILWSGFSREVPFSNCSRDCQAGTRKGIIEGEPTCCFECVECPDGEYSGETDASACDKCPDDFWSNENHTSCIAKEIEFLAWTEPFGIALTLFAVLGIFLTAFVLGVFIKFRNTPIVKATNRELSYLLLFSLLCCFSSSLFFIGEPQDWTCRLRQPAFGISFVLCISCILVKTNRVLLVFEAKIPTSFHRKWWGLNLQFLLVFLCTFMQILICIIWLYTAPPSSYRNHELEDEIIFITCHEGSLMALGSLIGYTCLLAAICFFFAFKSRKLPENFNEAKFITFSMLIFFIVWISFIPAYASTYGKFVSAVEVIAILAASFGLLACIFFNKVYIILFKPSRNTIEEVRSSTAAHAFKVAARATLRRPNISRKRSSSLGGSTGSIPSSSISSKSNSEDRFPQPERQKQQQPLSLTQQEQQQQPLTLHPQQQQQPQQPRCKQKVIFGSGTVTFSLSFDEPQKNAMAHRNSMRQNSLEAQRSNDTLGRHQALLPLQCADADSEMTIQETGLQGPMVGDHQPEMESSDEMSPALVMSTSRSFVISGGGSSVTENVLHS

CaSR [2] = molecular target: T3, CaSR (Homo sapiens, UniProt P41180); set-up: host or cells: HEK cells, transient; details: HEK cells, in the presence of 150 mM NaCl; read-out: EC50 for intracellular calcium responses; cited from earlier work
T3 sequence (P41180 20-1078): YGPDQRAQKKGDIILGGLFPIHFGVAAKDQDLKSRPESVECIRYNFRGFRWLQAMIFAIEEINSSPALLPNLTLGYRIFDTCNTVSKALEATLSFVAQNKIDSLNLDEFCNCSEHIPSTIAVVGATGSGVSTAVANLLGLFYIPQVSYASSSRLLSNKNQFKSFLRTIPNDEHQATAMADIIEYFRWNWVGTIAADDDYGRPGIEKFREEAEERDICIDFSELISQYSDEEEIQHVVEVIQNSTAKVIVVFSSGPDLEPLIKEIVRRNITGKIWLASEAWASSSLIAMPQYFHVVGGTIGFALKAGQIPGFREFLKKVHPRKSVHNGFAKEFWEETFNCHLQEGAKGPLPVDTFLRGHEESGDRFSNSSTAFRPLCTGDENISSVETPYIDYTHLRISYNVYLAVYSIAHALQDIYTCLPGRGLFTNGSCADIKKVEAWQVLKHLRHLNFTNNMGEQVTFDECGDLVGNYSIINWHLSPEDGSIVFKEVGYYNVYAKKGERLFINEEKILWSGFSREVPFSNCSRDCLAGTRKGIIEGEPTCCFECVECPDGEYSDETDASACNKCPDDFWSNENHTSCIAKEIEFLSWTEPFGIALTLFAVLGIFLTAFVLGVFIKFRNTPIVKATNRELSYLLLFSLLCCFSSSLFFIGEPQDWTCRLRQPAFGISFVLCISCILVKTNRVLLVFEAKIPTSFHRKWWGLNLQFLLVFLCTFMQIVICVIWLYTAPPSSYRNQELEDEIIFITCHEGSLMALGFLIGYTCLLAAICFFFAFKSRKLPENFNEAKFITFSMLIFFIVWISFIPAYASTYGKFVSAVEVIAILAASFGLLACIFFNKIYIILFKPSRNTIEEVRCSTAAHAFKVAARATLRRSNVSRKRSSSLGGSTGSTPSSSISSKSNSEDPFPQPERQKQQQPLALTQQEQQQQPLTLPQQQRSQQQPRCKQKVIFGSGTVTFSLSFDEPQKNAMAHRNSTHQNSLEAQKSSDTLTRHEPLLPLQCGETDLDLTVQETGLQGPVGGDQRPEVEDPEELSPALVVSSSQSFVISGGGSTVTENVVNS

In the case of [Mg+2] [Mg^2+, magnesium], the EC50 (CaSR [1]) is listed as 10 mM, the “EC50 relative to that of Ca^2+” value (rat CaSR) is listed as “about twice” and the EC50 (CaSR [2]) is listed as 15 to 20 mM.
